Assay results reported in US20130178466A1, “Treatment of Microbial Infections” (BIOCOPEA LIMITED, priority 2009, published 2013).
Like-named read-outs stand apart in the source and are kept apart here.

What was measured:
[1] = test system: Influenza A/PR/8/34; assay: In vivo mouse challenge with lethal influenza (H1N1); parameters: species or system C57BL/6 female mice; settings: H1N1-infected mice, single intra-peritoneal dose on day 3
Experimental: Protocol: Fifty (50) C57BL/6 female mice (6-7 weeks old), were divided into five (5) experimental groups containing ten (10) animals each. On day 1, animals received an intranasal lethal dose (50 μl total, 25 μl nostril) of Influenza A/PR/8/34 under halothane induced anaesthesia. On Day 3, animals received one intra-peritoneal injection (100-150 μl) of the test compound (360 μg ibuproxam (BC1048), 54 μg oxametacin (BC1002), 180 μg benoxaprofen (BC 1005), 189 μg benoxaprofen hydroxamate (BC1006)).
All animals were assessed daily for morbidity, weight loss and survival from Day 1 until at least Day 6. Morbidity variables (i.e. Body Condition, Posture, Activity, Piloerection, Respiration, Vocalisation, Ataxia and Oculo/Nasal Discharges) were recorded according to the following scale of severity: Normal (0), Mild (1), Laboured (2) and Severe/Cull-point (3).
Using standard techniques as described above, mice were infected with a H1N1 virus which was allowed to become established in each of the subjects. […] The weight loss of both treated and untreated mice was then determined.

[2] = test system: TNF-α; assay: TNF-α levels in PBMC under Con A stimulation (ELISA); assay type: cell-based, human; settings: for effect against ConA-stimulated TNF production (in words): Con A stimulated cells
Experimental: (§1) The two mitogens that the inventors used to stimulate lymphocytes, and therefore assess immune function, were lipopolysaccharide (LPS) and Concanavalin A (Con A). LPS acts on B cells but not T cells, whereas Con A acts on T cells but not B cells.
(§2) Blood was collected in 6 ml vacutainers (green cap). Blood was processed within 2 h of collection.
(§3) Materials used: Non-coagulated blood; FCS; RPMI-1640 media supplemented with L-Gln and P/S; PBS; sterile tips and pipettes; Sterile 15 ml Falcon; Sterile V-bottom 96-well plates with lids; Neubauer chamber; Trypan Blue solution; 70% IPA solution; Accuspin-Histopaque tubes (Sigma, A7054)
(§4) Procedure: • 1. Dilute samples 1:1 in sterile PBS; • 2. Add 30 ml of diluted blood into an Accuspin-Histopaque tube (Sigma, A7054); • 3. Centrifuge at 800 rcf 15 min at room temperature (RT); • 4. After centrifugation, the red blood cells will remain at the bottom below the frit. The monocytes (PBMC) will be present on a layer above the frit, with the plasma on top; • 5. Collect the PBMC layer with a pipette into a fresh 15 ml Falcon tube and top up to 15 ml of PBS; • 6. Centrifuge at 250 rcf 10 min at RT; • 7. Discard the supernatant, flick the pellet and add another 10 ml of PBS; • 8. Centrifuge at 250 rcf 10 min at RT; • 9. Repeat steps 7 and 8; • 10. Discard the supernatant and resuspend the pellet in 1 ml of complete medium (RPMI-1640 10% FCS); • 11. Count cells and make a 4×10^6 cell/ml suspension in complete medium. Add 100 μl of cell suspension per well in a V-bottom 96-well plate. Then add 50 μl of stimulant or vehicle in complete media, and 50 μl of drug or vehicle in complete media. Incubate the cells for 24 h at 37° C. 5% CO2; • 12. After incubation, take 60 μl of cell supernatant to measure IFNγ and TNFα by ELISA (OptEIA human IFNγ, cat No. 555142 and human TNF, Cat No. 555212) following manufacturer's instructions (BD Biosciences).

[3] = test system: IFN-γ; assay: IFN-γ levels in PBMC under Con A stimulation (ELISA); assay type: cell-based, human; settings: for effect against ConA-stimulated IFN production (in words): Con A stimulated cells
Experimental: as §1, §2, §3, §4

[4] = test system: TNF-α; assay: TNF-α levels in PBMC under LPS stimulation (ELISA); assay type: cell-based, human; settings: for effect on TNF under LPS stimulation (in words): LPS stimulated cells
Experimental: (§5) The two mitogens that the inventors used to stimulate lymphocytes, and therefore assess immune function, were lipopolysaccharide (LPS) and Concanavalin A (Con A). LPS acts on B cells but not T cells, whereas Con A acts on T cells but not B cells. […] Peripheral Blood Mononuclear Cells (PMBC) were independently administered with each mitogen, LPS or Con A, and then treated with ibuproxam, benoxaprofen hydroxamate or pentoxifylline. […] Blood was collected in 6 ml vacutainers (green cap). Blood was processed within 2 h of collection. Materials used: Non-coagulated blood; FCS; RPMI-1640 media supplemented with L-Gln and P/S; PBS; sterile tips and pipettes; Sterile 15 ml Falcon; Sterile V-bottom 96-well plates with lids; Neubauer chamber; Trypan Blue solution; 70% IPA solution; Accuspin-Histopaque tubes (Sigma, A7054) Procedure: • 1. Dilute samples 1:1 in sterile PBS; • 2. Add 30 ml of diluted blood into an Accuspin-Histopaque tube (Sigma, A7054); • 3. Centrifuge at 800 rcf 15 min at room temperature (RT); • 4. After centrifugation, the red blood cells will remain at the bottom below the frit. The monocytes (PBMC) will be present on a layer above the frit, with the plasma on top; • 5. Collect the PBMC layer with a pipette into a fresh 15 ml Falcon tube and top up to 15 ml of PBS; • 6. Centrifuge at 250 rcf 10 min at RT; • 7. Discard the supernatant, flick the pellet and add another 10 ml of PBS; • 8. Centrifuge at 250 rcf 10 min at RT; • 9. Repeat steps 7 and 8; • 10. […] Count cells and make a 4×10^6 cell/ml suspension in complete medium. Add 100 μl of cell suspension per well in a V-bottom 96-well plate. Then add 50 μl of stimulant or vehicle in complete media, and 50 μl of drug or vehicle in complete media. Incubate the cells for 24 h at 37° C. 5% CO2; • 12. […] The values in the Table are expressed as the percentage value of the LPS only control. […] Standard deviation values (st error) are given underneath each value of expressed IFN-γ or TNF-α levels.

[5] = test system: IFN-γ; assay: IFN-γ levels in PBMC under LPS stimulation (ELISA); assay type: cell-based, human; parameters: production of IFN after LPS stimulation (in words): dose or concentration left out as unconfirmed
Experimental: as §5

[6] = ConA, 1 μM, compared to 100% untreated cells under Con A stimulation
[7] = ConA, 10 μM, compared to 100% untreated cells under Con A stimulation
[8] = ConA, 100 μM, compared to 100% untreated cells under Con A stimulation
[9] = LPS, 1 μM, percentage of LPS only control (100%)
[10] = LPS, 10 μM, percentage of LPS only control (100%)
[11] = LPS, 100 μM, percentage of LPS only control (100%)
[12] = no LPS, 1 μM, percentage of LPS only control
[13] = no LPS, 10 μM, percentage of LPS only control
[14] = no LPS, 100 μM, percentage of LPS only control

SMILES	survival rate versus control, untreated mice [1]	effect against ConA-stimulated TNF production (in words) [2]	TNF-α % signal [2, 6] [%]	TNF-α % signal [2, 7] [%]	TNF-α % signal [2, 8] [%]	TNF-α % signal ([2]; no ConA, 1 μM) [%]	TNF-α % signal ([2]; no ConA, 10 μM) [%]	TNF-α % signal ([2]; no ConA, 100 μM) [%]	effect against ConA-stimulated IFN production (in words) [3]	IFN-γ % signal [3, 6] [%]	IFN-γ % signal [3, 7] [%]	IFN-γ % signal [3, 8] [%]	IFN-γ % signal ([3]; no ConA, 1 μM) [%]	IFN-γ % signal ([3]; no ConA, 10 μM) [%]	IFN-γ % signal ([3]; no ConA, 100 μM) [%]	TNF-α % signal [4, 9] [%]	TNF-α % signal [4, 10] [%]	TNF-α % signal [4, 11] [%]	TNF-α % signal [4, 12] [%]	TNF-α % signal [4, 13] [%]	further results
COc1ccc2c(c1)c(CC(=O)NO)c(C)n2C(=O)c1ccc(Cl)cc1 [BC1002, oxametacin]	higher survival rate than the control																				
CC(C(=O)O)c1ccc2oc(-c3ccc(Cl)cc3)nc2c1 (stereo not shown) [BC1005, benoxaprofen]	higher survival rate than the control																				
CC(C(=O)NO)c1ccc2oc(-c3ccc(Cl)cc3)nc2c1 (stereo not shown) [BC1006, benoxaprofen hydroxamate]	higher survival rate than the control	clear effects	83.37	38.65	51.50	2.84	1.62	19.51	clear effects	98.35	33.81	3.78	3.76	2.80	1.82	106.25	101.47	57.77	−2.29	−2.27	maximal effect against TNF under LPS stimulation ([4]; at the higher concentration): 41%; TNF-α % signal [4, 14]: 11.97%; IFN-γ % signal [5, 9]: 35.29%; IFN-γ % signal [5, 10]: 16.67%; IFN-γ % signal [5, 11]: 21.21%; IFN-γ % signal [5, 12]: 16.74%; IFN-γ % signal [5, 13]: 13.46%; IFN-γ % signal [5, 14]: 12.38%
CC(=O)CCCCn1c(=O)c2c(ncn2C)n(C)c1=O [BC1042, pentoxifylline]	higher survival rate than the control	little effect	101.46	102.31	103.71	1.11	−2.37	−0.77	little effect	108.10	97.98	92.61	1.13	0.42	0.58	113.04	107.28	114.60	1.15	−2.45	effect on TNF under LPS stimulation (in words) [4]: less of an effect; TNF-α % signal [4, 14]: −0.80%; production of IFN after LPS stimulation (in words) [5]: less pronounced than ibuproxam; IFN-γ % signal [5, 9]: 102.11%; IFN-γ % signal [5, 10]: 98.28%; IFN-γ % signal [5, 11]: 40.73%; IFN-γ % signal [5, 12]: 3.98%; IFN-γ % signal [5, 13]: 1.48%; IFN-γ % signal [5, 14]: 2.03%
CC(C)Cc1ccc(C(C)C(=O)NO)cc1 (stereo not shown) [BC1048, ibuproxam]	higher survival rate than the control	modest effect	109.64	106.74	79.25	3.08	0.48	−1.25	modest effect	94.90	97.25	78.18	−0.68	−0.61	−1.04	105.78	105.67	109.93	3.14	0.48	effect on TNF under LPS stimulation (in words) [4]: less of an effect; TNF-α % signal [4, 14]: −1.28%; IFN-γ % signal [5, 9]: 89.21%; IFN-γ % signal [5, 10]: 96.62%; IFN-γ % signal [5, 11]: −1.28%; production of IFN after LPS stimulation (in words) ([5]; highest concentration): completely blocks; IFN-γ % signal [5, 12]: −4.14%; IFN-γ % signal [5, 13]: −3.67%; IFN-γ % signal [5, 14]: −6.29%
